The record followed here is patent US7781464B2, “Heterocyclic diphenyl ethers” (Bexel Pharmaceuticals, Inc., priority 2003, dated 2010).

One series concerns 3T3-L1 adipocytes. The series can be described thus: Basal glucose uptake in 3T3-L1 adipocytes (14C-2-deoxyglucose). The format is cell-based. The note with it: 1.0 μM, 72 hours treatment, 10 minutes uptake without insulin, vs 0.1% DMSO. The procedure:
Referring to FIG. 1, 3T3-L1 fibroblasts were differentiated to adipocytes by a cocktail containing insulin, dexamethasone and IBMX for four days. Fully differentiated adipocytes were treated with the compounds (1.0 μM concentrations) or 0.1% DMSO for 72 hours and then glucose uptake was carried out for 10 minutes without any addition of insulin. Basal uptake was initiated by addition of radioactive ^14C-2-deoxyglucose and after 10 minutes they were washed with cold PBS mixed with cold glucose. At the end, the cells were solubilized with 0.1% SDS and counted in a Beckman scintillation counter.

The subject of another series is TNFα. The series is described as follows: TNFα inhibition in LPS-challenged human PBMC (ELISA). To be noted: 10 μM, LPS 100 ng/mL for 20 hours. The format is cell-based. The procedure:
Referring to FIG. 7, human PBMC cells were cultured and incubated with Compound 1 and 2 at 10 μM concentration. Cells (1×10^6/mL) were challenged with lipopolysaccharides (LPS) at a concentration of (100 ng/mL) for 20 hours. TNF was measured by ELISA.
A general note: ELISA stands for enzyme-linked immunosorbent assay.

Series [1] deals with db/db mice. The series is described as follows: Serum cholesterol in db/db mice. It is filed as in vivo. The note with it: 50 mg/kg once daily for 14 days. The protocol: Referring to FIG. 6, db/db mice (6-8 weeks old) were treated with Compound 2 (50 mg/kg) once daily for 14 days. At the end of the study serum cholesterol was measured by a calorimetric method.
Series [2] concerns human liver cells (HepG2). The series is described as follows: Cytotoxicity in HepG2 cells (MTS viability). The note with it: 24 hours, up to 100 μM.
Description: To find the cytotoxic effect of this class of new thiazolidinedione compounds (TZD), they were incubated in HepG2 cells for 24 hours and then the viability was measured by colorimetric reactions with MTS.
A further series concerns 3T3-L1 fibroblasts. The series is described as follows: Adipogenesis in 3T3-L1 fibroblasts (Oil-red-O staining). The note with it: stained on day 11, rosiglitazone 10 μM positive control. It is filed as cell-based. The procedure:
All known PPAR-γ agonists (both TZD or non-TZDs) induce differentiation in the fibroblast cells. The adipogenic potential of these compounds are correlated with their affinity to this receptor. Referring to FIG. 3, to check whether the Compounds 1 and 2 have any affinity to these receptors, 3T3-L1 fibroblasts were treated with either DMSO control or rosiglitazone (all at 10 μM concentrations) as positive control or these two compounds for several days at different concentrations. On day 11th, the differentiated adipocytes were stained with Oil-red-O (Sigma) and washed thoroughly to remove the unbound stain. The stained differentiated adipocytes were visualized under high-resolution microscope.

Series [3] concerns LPS-induced NO production. The series can be described thus: Inhibition of LPS-induced NO production in RAW 264.7 macrophages (Griess nitrite). It is filed as cell-based, mouse. The note with it: RAW 264.7, 30 μM, LPS 200 ng/mL + IFN-γ 10 U/mL, 18 hours. The protocol: Mouse macrophages (RAW 264.7) were plated in 6-well plate (2 million cells/well), and incubated at 37° C. with LPS (200 ng/mL+IFN-γ 10 U/mL) for 18 hours. Nitrite levels were measured by the Griess reagent. All of the compounds were tested at 30 μM concentrations.
For orientation: Griess reagent forms a coloured azo dye with nitrite.

Series [4] relates to db/db (spontaneous model) diabetic mice. The series can be described thus: Blood glucose lowering in db/db diabetic mice. It is filed as in vivo. The note with it: oral, 50 mg/kg body weight, daily. The protocol:
Referring to FIG. 4, ten week old male db/db (spontaneous model) diabetic mice were orally treated with compound 1 at a dose of 50 mg/kg body weight and blood glucose was monitored by one touch glucometer every day morning before the next dose.

For series [5], the system named is db/db mice. The series can be described thus: Oral glucose tolerance in db/db mice. The format is in vivo. The note with it: 50 mg/kg once daily for 14 days, oral glucose challenge 2 g/kg BW. The procedure: Referring to FIG. 5, db/db mice (6-8 weeks old) were treated with Compound 2 (50 mg/kg) once daily for 14 days. On day 14 the animals were fasted overnight and gavaged with Compound 2, one hour prior to oral glucose challenge (2 g/kg BW).

With `O=C(O)Cc1ccc(Oc2ccc(CC3SC(=O)NC3=O)cc2)cc1` (stereo not drawn) [Compound 1, {4-[4-(2,4-Dioxothiazolidin-5-ylmethyl)phenoxy]-phenyl}acetic acid], in the series on 3T3-L1 adipocytes, the basal glucose uptake entry is listed as “induced glucose uptake over basal levels”. The “inhibition of pro-inflammatory cytokines (TNF by ELISA)” value with TNFα was “inhibit major pro-inflammatory cytokines”. The serum cholesterol entry in the series with db/db mice [1] is listed as “serum cholesterol lowering effect”. The “cytotoxicity (viability by MTS)” value in series [2] is listed as “did not show any toxicity”. In addition, in the series on 3T3-L1 fibroblasts, the “adipogenesis (differentiation of fibroblasts, Oil-red-O)” value is “non-adipogenic”. Moreover, the “inhibition of LPS-induced NO production (nitrite concentration)” value in series [3] is reported as “inhibition of LPS-induced NO production”.

In the case of “{4-[4-(2,4-Dioxo-thiazolidin-5-ylmethyl)-phenoxy]-phenyl}-acetic acid disodium salt [Compound 2]”, in series [4], the blood glucose result is “blood glucose lowering effect”. The basal glucose uptake result with 3T3-L1 adipocytes is listed as “induced glucose uptake over basal levels”. Also, the “inhibition of pro-inflammatory cytokines (TNF by ELISA)” value in the series with TNFα was “inhibit major pro-inflammatory cytokines”. Moreover, in the series with 3T3-L1 fibroblasts, the “adipogenesis (differentiation of fibroblasts, Oil-red-O)” value is given as “non-adipogenic”. Also, the glucose tolerance result in the series on db/db mice [5] is reported as “improvement in glucose tolerance”. Besides, in series [3], the “inhibition of LPS-induced NO production (nitrite concentration)” value is on record as “inhibition of LPS-induced NO production”.
